Results on 1 molecule are retold here after patent US12269826B1, “7H-pyrido[4′,3′:4,5]pyrrolo[2,3-c][1,7]naphthyridine compounds as CK2 inhibitors” (KING FAISAL UNIVERSITY, priority 2023, dated 2025).

As usually defined, the IC50 is the concentration that inhibits the measured activity by half.

Experiment [1] concerns PC3 (prostate). As to the kind of experiment: In vitro cytotoxic activity (MTT) assay, PC3. It is filed as cell-based. The note with it: Homo sapiens; cells exposed for 96 hours; 50% inhibition of cell proliferation; read-out: Cytotoxicity activity IC50, PC3 (prostate). How it is done:
(§1) Compounds 1-16 were screened for their in vitro cytotoxic activity utilizing a 3-(4,5-dimethyl-thiazol-2-yl)-2,5-diphenyltetrazolium bromide (MTT) assay against selected cancer human cell lines consisting of PC3 (prostate), HCT116 (colon), A375 (melanoma), H1299 (lung), MIAPaCa-2 (pancreas), HL60 (leukemia), MCF7 (breast), MDA-MB-231 (breast) (T. Mosmann, J. Immunol. Meth., 1983, 65, 55-63). The cells were cultured at 37° C. in RMPI1640 medium supplemented with 10% fetal bovine serum, 50 IU/mL penicillin, and 50 μg/mL streptomycin in a 5% CO2 incubator. All cells were sub-cultured 3 times/week by trypsinisation. Viable cells were seeded and allowed to adhere for 12 h before a test drug was added in 96-well plates at an initial density of 1.0×10^5 cells/mL. Tumor cell lines were separately exposed to various concentrations of the tested compounds followed by incubation at a temperature of 37° C. during 96 hours inside a medium of fresh RMPI 1640. Cells were subsequently incubated at 37° C. using MTT at 0.5 mg/mL during 4 hours. After removal of supernatant, formazan crystals were dissolved in isopropanol and the optical density was measured at 570 nm. CX-4945 was used as a positive control.

The test system of experiment [2] is HCT116 (colon). As to the kind of experiment: In vitro cytotoxic activity (MTT) assay, HCT116. The note with it: Homo sapiens, HCT-116; cells exposed for 96 hours; 50% inhibition of cell proliferation; read-out: Cytotoxicity activity IC50, HCT116 (colon). It is filed as cell-based. How it is done:
as §1

Experiment [3] concerns A375 (melanoma). Put plainly: In vitro cytotoxic activity (MTT) assay, A375. It is filed as cell-based. To be noted: Homo sapiens, A-375; cells exposed for 96 hours; 50% inhibition of cell proliferation; read-out: Cytotoxicity activity IC50, A375 (melanoma). How it is done: as §1
The test system of experiment [4] is H1299 (lung). As to the kind of experiment: In vitro cytotoxic activity (MTT) assay, H1299. It is filed as cell-based. The note with it: Homo sapiens, NCI-H1299; cells exposed for 96 hours; 50% inhibition of cell proliferation; read-out: Cytotoxicity activity IC50, H1299 (lung). As to the method: as §1
Experiment [5] relates to MIAPaCa-2 (pancreas). Put plainly: In vitro cytotoxic activity (MTT) assay, MIAPaCa-2. It is filed as cell-based. The note with it: Homo sapiens, MIA PaCa-2; cells exposed for 96 hours; 50% inhibition of cell proliferation; read-out: Cytotoxicity activity IC50, MIAPaCa-2 (pancreas). As to the method: as §1
Experiment [6] concerns HL60 (leukemia). Put plainly: In vitro cytotoxic activity (MTT) assay, HL60. To be noted: Homo sapiens, HL-60; cells exposed for 96 hours; 50% inhibition of cell proliferation; read-out: Cytotoxicity activity IC50, HL60 (leukemia). It is filed as cell-based. How it is done: as §1
Experiment [7] relates to MCF7 (breast). Put plainly: In vitro cytotoxic activity (MTT) assay, MCF7. It is filed as cell-based. The note with it: Homo sapiens, cells exposed for 96 hours, 50% inhibition of cell proliferation, read-out: Cytotoxicity activity IC50, MCF7 (breast). How it is done:
as §1

For experiment [8], the system named is MDA-MB-231 (breast). Put plainly: In vitro cytotoxic activity (MTT) assay, MDA-MB-231. It is filed as cell-based. The note with it: Homo sapiens, cells exposed for 96 hours, 50% inhibition of cell proliferation, read-out: Cytotoxicity activity IC50, MDA-MB-231 (breast). How it is done: as §1
The target in experiment [9] is T1, recombinant human CK2 (RRββ-holoenzyme) (Homo sapiens, UniProt P68400).
T1 construct: purchased Millipore
T1 sequence (P68400 whole entry): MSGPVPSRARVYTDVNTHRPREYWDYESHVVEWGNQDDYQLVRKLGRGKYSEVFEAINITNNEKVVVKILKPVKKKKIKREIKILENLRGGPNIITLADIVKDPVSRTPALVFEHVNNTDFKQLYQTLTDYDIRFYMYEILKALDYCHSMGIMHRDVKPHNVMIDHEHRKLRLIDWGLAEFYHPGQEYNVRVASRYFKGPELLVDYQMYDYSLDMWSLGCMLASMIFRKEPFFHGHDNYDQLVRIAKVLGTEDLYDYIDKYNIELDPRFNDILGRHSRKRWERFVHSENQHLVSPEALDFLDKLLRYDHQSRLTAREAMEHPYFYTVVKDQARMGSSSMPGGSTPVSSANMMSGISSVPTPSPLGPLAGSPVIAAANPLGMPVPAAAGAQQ
T1 sequence (P67870 whole entry partner): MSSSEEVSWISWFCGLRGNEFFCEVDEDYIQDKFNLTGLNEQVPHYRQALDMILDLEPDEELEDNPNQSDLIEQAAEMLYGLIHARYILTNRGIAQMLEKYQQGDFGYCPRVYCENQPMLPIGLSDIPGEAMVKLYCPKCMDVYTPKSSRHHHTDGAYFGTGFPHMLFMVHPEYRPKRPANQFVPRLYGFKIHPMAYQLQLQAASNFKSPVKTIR
Put plainly: CK2 Kinase Assay (33P-ATP, filter plate). It is filed as biochemical. The note with it: final ATP concentration 15 μM; 10 min at 30° C.; read-out: protein kinase CK2 IC50. As to the method:
CK2 Kinase Assay was conducted using the protocol as described in Pierre F. et al; J. Med. Chem. 2011, 54, 635-654. The tested compounds in aqueous solution were added at a volume of 10 μL to a reaction mixture comprising 10 μL of assay dilution buffer (ADB; 20 mM MOPS, pH 7.2, 25 mM β-glycerol phosphate, 5 mM EGTA, 1 mM sodium orthovanadate, and 1 mM dithiothreitol), 10 μL of substrate peptide (RRRDDDSDDD, dissolved in ADB at a concentration of 1 mM), 10 μL of recombinant human CK2 (RRββ-holoenzyme, 25 ng dissolved in ADB; Millipore). Reactions were initiated by the addition of 10 μL of ATP solution (90% 75 mMMgCl2, 75 µM ATP (final ATP concentration: 15 μM) dissolved in ADB; 10% [γ-33P] ATP (stock 1 mCi/100 μL; 3000 Ci/mmol (Perkin-Elmer) and maintained for 10 min at 30° C. The reactions were quenched with 100 μL of 0.75% phosphoric acid and then transferred to and filtered through a phosphor cellulose filter plate (Millipore). After washing each well five times with 0.75% phosphoric acid, the plate was dried under vacuum for 5 min and, following the addition of 15 μL of scintillation fluid to each well, the residual radioactivity was measured using a Wallac luminescence counter. The IC50 values were derived from eight concentrations of test inhibitors.

Turning to `Clc1cccc(Nc2nc3cnccc3c3c2[nH]c2cnccc23)c1` [Compound 1, N-(3-chlorophenyl)-7H-pyrido[4′,3′:4,5]pyrrolo[2,3-c][1,7]naphthyridin-6-amine], the concentration for half-maximal inhibition (IC50) in experiment [1] stood at 0.9 µM; in [2] it was 1.1 µM; in experiment [3] it was 4.2 µM; in experiment [4], 1.6 µM; in [5], 2.8 µM; in [6], 3.6 µM. The IC50 in experiment [7] stood at 4.9 µM; in experiment [8], 4.1 µM; in experiment [9], 0.295 µM.
